Assay results as given in patent US20250326748A1, “COMPOUNDS AND METHODS FOR MODULATING SPLICING” (REMIX THERAPEUTICS INC., priority 2022, published 2025).
pIC50: −log10 of the molar value. Counter-ions that a name gives are not always drawn. Like-named read-outs stand apart in the source and are kept apart here.

Columns and labels:
SMN2 mRNA = assay: Splicing RT-qPCR panel, SMN2 canonical junction (CJ) mRNA; format: cell-based, human; details: Homo sapiens, read-out: SMN2 CJ (decrease in CJ mRNA levels, IC50)
Description: (§1) Compounds described herein were used to modulate RNA transcript abundance in cells. The expression of a target mRNA was measured by detecting the formation of an exon-exon junction in the canonical transcript (CJ). A compound mediated exon-inclusion event was detected by observing an increase in formation of a new junction with an alternative exon (AJ). Real-time qPCR assays were used to detect these splicing switches and interrogate the potency of various compounds towards different target genes. A high-throughput real time quantitative PCR (RT-qPCR) assay was developed to measure these two isoforms of the mRNA (CJ and AJ) for exemplary genes, such as HTT, SMN2, and MYB, together with a control housekeeping gene, GAPDH or GUSB or PPIA, used for normalization. Briefly, the A673 or K562 cell line was treated with various compounds described herein (e.g., compounds of Formula (D). After treatment, the levels of the HTT, MYB, or SMN2 mRNA targets were determined from each sample of cell lysate by cDNA synthesis followed by qPCR.
(§2) The A673 cell line was cultured in DMEM with 10% FBS. Cells were diluted with full growth media and plated in a 96-well plate (15,000 cells in 100 ul media per well). The plate was incubated at 37° C. with 5% CO2 for 24 hours to allow cells to adhere. An 11-point 3-fold serial dilution of the compounds was made in DMSO then diluted in media in an intermediate plate. Compounds were transferred from the intermediate plate to the cell plate with the top dose at a final concentration of 10 uM in the well. Final DMSO concentration was kept at or below 0.25%. The cell plate was returned to the incubator at 37° C. with 5% CO2 for an additional 24 hours.
(§3) The K562 cell line was cultured in IMDM with 10% FBS. For K562, cells were diluted with full growth media and plated in either a 96-well plate (50,000 cells in 50 uL media per well) or a 384-well plate (8,000-40,000 cells in 45 uL media per well). An 11-point 3-fold serial dilution of the compounds were made in DMSO then diluted in media in an intermediate plate. Compound was transferred from the intermediate plate to the cell plate with the top dose at a final concentration of 10 uM in the well. Final DMSO concentration was kept at or below 0.25%. Final volume was 100 uL for 96-well plate and 50 uL for 384-well plate. The cell plate was then placed in an incubator at 37° C. with 5% CO2 for 24 hours.
(§4) The cells were then gently washed with 50 uL-100 uL cold PBS before proceeding to addition of lysis buffer. 30 uL-50 μL of room temperature lysis buffer with DNAse I (and optionally RNAsin) was added to each well. Cells were shaken/mixed thoroughly at room temperature for 5-10 minutes for lysis to take place and then 3 uL-5 μL of room temperature stop solution was added and wells were shaken/mixed again. After 2-5 minutes, the cell lysate plate was transferred to ice for RT-qPCR reaction setup. The lysates could also be frozen at −80° C. for later use.
(§5) In some cases, a direct lysis buffer was used. An appropriate volume of 3× lysis buffer (10 mM Tris, 150 mM NaCl, 1.5%-2.5% Igepal and 0.1-1 U/uL RNAsin, pH 7.4) was directly added to either K562 or A673 cells in media and mixed by pipetting 3 times. The plates were then incubated at room temperature with shaking/rocking for 20-50 minutes to allow for lysis to take place. After this time, the cell lysate plate was transferred to ice to set up for the RT-qPCR reactions. The lysates could also be frozen at −80° C. for later use.
(§6) To set up 10 uL RT-qPCR reactions, cell lysates were transferred to 384-well qPCR plates containing the master mix according to the table below. The plates were sealed, gently vortexed, and spun down before the run. The volumes were adjusted accordingly in some instances where the reaction was carried in 20 μL. The table below summarizes the components of the RT-qPCR reactions:
(§7) The RT-qPCR reaction was performed using a QuantStudio (ThermoFisher) under the following fast cycling conditions. […]

MYB mRNA = assay: Splicing RT-qPCR assay, MYB canonical (CJ) and alternative (AJ) junction mRNA; format: cell-based, human; details: Homo sapiens; for pIC50: canonical junction mRNA; for AC50: alternative junction mRNA, read-out: MYB AJ (AC50, increase in AJ mRNA)
Description: as §1
(§8) • Cells-to-CT 1-step kit: ThermoFisher A25602, Cells-to-CT lysis reagent: ThermoFisher 4391851C, TaqMan™ Fast Virus 1-Step Master Mix: ThermoFisher 4444436 • GAPDH: VIC-PL, ThermoFisher 4326317E (Assay: Hs99999905_m1)—used for K562/suspension cell lines • GUSB: VIC-PL, ThermoFisher 4326320E (Assay: Hs99999908_m1)—used for K562/suspension cell lines • PPIA: VIC-PL, ThermoFisher 4326316E (Assay: Hs99999904_m1)—used for A673/adherent cell lines
as §2, §3, §4
(§9) In some cases, a direct lysis buffer was used. An appropriate volume of 3× lysis buffer (10 mM Tris, 150 mM NaCl, 1.5%-2.5% Igepal and 0.1-1 U/uL RNAsin, pH 7.4) was directly added to either K562 or A673 cells in media and mixed by pipetting 3 times. The plates were then incubated at room temperature with shaking/rocking for 20-50 minutes to allow for lysis to take place. After this time, the cell lysate plate was transferred to ice to set up for the RT-qPCR reactions. The lysates could also be frozen at −80° C. for later use. […]

HTT mRNA = assay: Splicing RT-qPCR assay, HTT canonical (CJ) and alternative (AJ) junction mRNA; format: cell-based, human; details: Homo sapiens; for pIC50: canonical junction mRNA; for AC50: alternative junction mRNA, read-out: HTT AJ (AC50, increase in AJ mRNA)
Description: as §1, §8, §2, §3, §4, §9

Target C mRNA = assay: Splicing RT-qPCR panel, Target C canonical junction (CJ) mRNA; format: cell-based, human; details: Homo sapiens, read-out: Target C CJ (decrease in CJ mRNA levels, IC50)
Description: as §1, §2, §3, §4, §5, §6, §7

K562 cells = assay: Cell viability, Cell Titer Glo 2.0 assay, K562; details: 72 hours
[1] = qPCR panel, read-out: MYB CJ (decrease in CJ mRNA levels, IC50)
[2] = RT-qPCR, A673 or K562 cells, 24 hours treatment
[3] = RT-qPCR, A673 or K562 cells, 24 hours treatment, read-out: MYB CJ (IC50, decrease in CJ mRNA)
[4] = 24 h, RT-qPCR, A673 or K562 cells, 24 hours treatment, read-out: HTT CJ (IC50, decrease in CJ mRNA)
[5] = qPCR panel, read-out: HTT CJ (decrease in CJ mRNA levels, IC50)

SMILES | pIC50 (SMN2 mRNA) | pIC50 (MYB mRNA; [1]) | AC50 (MYB mRNA; [2]) [nM] | pIC50 (MYB mRNA; [3]) | pIC50 (HTT mRNA; [4]) | pIC50 (HTT mRNA; [5]) | AC50 (HTT mRNA; [2]) [nM] | pIC50 (Target C mRNA) | Effect on Cell Viability, K562 (K562 cells) | pIC50 (HTT mRNA; RT-qPCR, A673 or K562 cells, 24 hours treatment, read-out: HTT CJ (IC50, decrease in CJ mRNA))
Cc1c(O)c(-c2ccc3nc(N4CCNC(C)C4)cnc3n2)cc2cn(C)nc12 (stereo not shown) [Cmpd 196] | > 7.00 | 6.00 to 7.00 | < 100 | 6.00 to 7.00 | 6.00 to 7.00 | 6.00 to 7.00 | 1000 to 10000 | 5.00 to 6.00 | – | –
CNC1CCN(c2cnc3nc(-c4cc5cn(C)nc5c(C)c4O)ccc3c2)C1 (stereo not shown) [Compound 113, 2,7-dimethyl-5-{6-[3-(methylamino)pyrrolidin-1-yl]-1,8-naphthyridin-2-yl}indazol-6-ol] | > 7.00 | > 7.00 | < 100 | > 7.00 | 6.00 to 7.00 | 6.00 to 7.00 | 100 to 1000 | 6.00 to 7.00 | – | –
Cn1cc2cc(-c3cc(Cl)c4cc(N5CC[C@@H](NCCF)C5)cnc4n3)c(O)cc2n1 [Compound 387, 5-{4-chloro-6-[(3R)-3-[(2-fluoroethyl)amino]pyrrolidin-1-yl]-1,8-naphthyridin-2-yl}-2-methylindazol-6-ol hydrochloride] | – | > 7.00 | < 100 | > 7.00 | 6.00 to 7.00 | 6.00 to 7.00 | 100 to 1000 | 5.00 to 6.00 | B (100-1000 nM) | –
Cl.Cn1cc2cc(-c3cc(Cl)c4cc(N5CC[C@H](NCCF)C5)cnc4n3)c(O)cc2n1 [Compound 389] | – | 6.00 to 7.00 | < 100 | 6.00 to 7.00 | – | 5.00 to 6.00 | 1000 to 10000 | 5.00 to 6.00 | B (100-1000 nM) | 5.00 to 6.00
C[C@@H]1CN(c2cnc3nc(-c4cc(F)c5nn(C)cc5c4)ccc3c2Cl)C[C@H](C)N1 [Compound 391] | – | 6.00 to 7.00 | 100 to 1000 | 6.00 to 7.00 | < 5.00 | < 5.00 | 1000 to 10000 | 5.00 to 6.00 | B (100-1000 nM) | –
Cc1cn2nc(-c3ccc4c(Cl)c(N5C[C@@H](C)N[C@@H](C)C5)cnc4n3)cc(C)c2n1 [Compound 392] | – | 6.00 to 7.00 | 100 to 1000 | 6.00 to 7.00 | 5.00 to 6.00 | 5.00 to 6.00 | 1000 to 10000 | 5.00 to 6.00 | B (100-1000 nM) | –
Cc1c(N2C[C@H](C)N[C@@H](C)C2)cnc2nc(-c3cc4cn(C)nc4c(C)c3O)ccc12 [Compound 395, 5-{6-[(3S,5S)-3,5-dimethylpiperazin-1-yl]-5-methyl-1,8-naphthyridin-2-yl}-2,7-dimethylindazol-6-ol] | – | > 7.00 | 100 to 1000 | > 7.00 | 6.00 to 7.00 | 6.00 to 7.00 | 1000 to 10000 | 5.00 to 6.00 | B (100-1000 nM) | –
Cc1c(N2C[C@@H](C)N[C@@H](C)C2)cnc2nc(-c3cc4cn(C)nc4cc3O)ccc12 [Compound 487] | > 7.00 | 5.00 to 6.00 | 1000 to 10000 | 5.00 to 6.00 | < 5.00 | < 5.00 | > 10000 | – | – | –
C[C@@H]1CN(c2cnc3nc(-c4cc5cn(C)nc5cc4O)ccc3c2Cl)C[C@H](C)N1 [Compound 492] | > 7.00 | > 7.00 | < 100 | > 7.00 | 5.00 to 6.00 | 5.00 to 6.00 | 1000 to 10000 | – | – | –
Cn1cc2cc(-c3cc(Cl)c4cc(N5CC[C@H](NC(C)(C)C)C5)cnc4n3)c(O)c(F)c2n1 [Compound 497] | > 7.00 | > 7.00 | < 100 | > 7.00 | > 7.00 | > 7.00 | 100 to 1000 | – | – | –
Cn1cc2cc(-c3cc(Cl)c4cc(N5CC[C@@H](NC(C)(C)C)C5)cnc4n3)c(O)c(F)c2n1 [Compound 498] | > 7.00 | 6.00 to 7.00 | 100 to 1000 | 6.00 to 7.00 | < 5.00 | < 5.00 | > 10000 | – | – | –
Cn1cc2cc(-c3ccc4c(Cl)c(N5CCNC6(CC6)C5)cnc4n3)c(O)cc2n1 [Compound 500, 5-[5-chloro-6-(4,7-diazaspiro[2.5]octan-7-yl)-1,8-naphthyridin-2-yl]-2-methyl-indazol-6-ol] | > 7.00 | 6.00 to 7.00 | 100 to 1000 | 6.00 to 7.00 | 5.00 to 6.00 | 5.00 to 6.00 | 1000 to 10000 | – | – | –
